# Assay results published in patent publication US20120214862A1, “MODULATION OF FACTOR 7 EXPRESSION” (ISIS Pharmaceuticals, Inc., priority 2009, published 2012).
# In the oligonucleotide strings, read from the 5' end, every base follows the letter of its sugar. An asterisk marks phosphorothioate; unmarked linkages are phosphodiester. Other units and linkages are bracketed, terminal groups are in braces. A string of capitals states the bases alone. e = 2'-O-(2-methoxyethyl) (MOE); [5mC] = 5-methylcytosine; d = 2'-deoxy (DNA)
# System: human Factor 7 mRNA
# Assay: Inhibition of human Factor 7 mRNA by 2-10-2 MOE shortmers in HepB3 cells, electroporation, 1,000 nM
# Assay type: cell-based
# Details: electroporation, 1,000 nM oligonucleotide, approximately 24 hours, relative to untreated control cells
# Outline: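 14-mer 2-10-2 2′-MOE gapmers, full phosphorothioate, 5-methylcytidines, electroporated at 1,000 nM into HepB3 cells (20,000/well). After ~24 h, mRNA quantified by real-time RT-PCR, normalized to RIBOGREEN total RNA; percent inhibition relative to untreated cells.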
row,Substance,% inhibition of human Factor 7 mRNA [%]
1,435680 (antisense eG*eT*dG*d[5mC]*dT*d[5mC]*dG*d[5mC]*dT*dG*dA*dG*eG*eT) [compound 435680],52
2,435687 (antisense eA*eT*dG*dG*dT*d[5mC]*dA*dG*dT*dG*dA*dG*eG*eA) [compound 435687],7
3,435498 (antisense eT*eG*dG*dG*dA*dG*dA*d[5mC]*d[5mC]*d[5mC]*dT*dG*eG*eT) [compound 435498],37
4,435767 (antisense e[5mC]*eA*d[5mC]*d[5mC]*dA*dA*dG*dT*dT*dT*dA*dT*eG*eG) [compound 435767],0
5,435750 (antisense e[5mC]*eA*d[5mC]*dT*dG*d[5mC]*dA*dG*d[5mC]*d[5mC]*dA*dG*eG*eG) [compound 435750],14
6,435478 (antisense eG*eA*dG*dG*d[5mC]*dA*d[5mC]*dA*d[5mC]*dT*dG*dG*eT*e[5mC]) [compound 435478],43
7,435736 (antisense eA*eT*dG*d[5mC]*dA*dT*dG*dG*dT*dG*dA*dT*eG*e[5mC]) [compound 435736],50
8,435815 (antisense e[5mC]*eT*d[5mC]*dT*dT*d[5mC]*d[5mC]*dG*dA*dG*d[5mC]*dA*eG*e[5mC]) [compound 435815],59
9,435838 (antisense eT*e[5mC]*d[5mC]*dA*dT*dG*dG*dA*d[5mC]*dA*d[5mC]*dT*eA*eA) [compound 435838],29
10,435738 (antisense e[5mC]*eA*dG*dA*dG*dG*dA*dT*dG*dA*dG*d[5mC]*eA*e[5mC]) [compound 435738],16
11,435677 (antisense eG*eT*dG*d[5mC]*dT*d[5mC]*dG*d[5mC]*d[5mC]*d[5mC]*dA*dG*e[5mC]*eA) [compound 435677],60
12,435648 (antisense eG*eA*dA*dG*d[5mC]*dA*dG*dA*dT*dA*dT*dA*eG*eG) [compound 435648],0
13,435635 (antisense e[5mC]*eA*dT*dG*dA*dT*dG*dA*dA*dA*dT*d[5mC]*eT*e[5mC]) [compound 435635],0
14,435756 (antisense eT*eG*d[5mC]*d[5mC]*d[5mC]*dA*dG*dG*dA*d[5mC]*dG*dG*e[5mC]*e[5mC]) [compound 435756],20
15,435766 (antisense eG*e[5mC]*dA*d[5mC]*d[5mC]*dT*dG*d[5mC]*dA*dG*d[5mC]*d[5mC]*eA*eG) [compound 435766],51
16,435748 (antisense eT*e[5mC]*d[5mC]*d[5mC]*dA*dG*dG*dG*dT*d[5mC]*dT*d[5mC]*eT*eG) [compound 435748],18
17,435662 (antisense eT*eG*dG*dA*dT*dA*dT*dT*d[5mC]*dA*dA*d[5mC]*eT*eG) [compound 435662],19
18,435657 (antisense eG*e[5mC]*dA*dG*dT*dA*d[5mC]*dT*dG*d[5mC]*dT*d[5mC]*eA*e[5mC]) [compound 435657],69
19,435482 (antisense eT*eG*dG*dG*dT*d[5mC]*dA*dT*d[5mC]*dA*dG*d[5mC]*e[5mC]*eG) [compound 435482],62
20,435640 (antisense eT*eG*dT*dA*dA*dG*dA*dA*dA*dT*d[5mC]*d[5mC]*eA*eG) [compound 435640],2
21,435727 (antisense eT*eG*dG*dA*dG*dT*d[5mC]*dA*dG*d[5mC]*dA*dT*e[5mC]*eG) [compound 435727],73
22,435484 (antisense e[5mC]*e[5mC]*dT*dG*dG*dG*dT*d[5mC]*dA*dT*d[5mC]*dA*eG*e[5mC]) [compound 435484],45
23,435764 (antisense eT*eG*dA*dG*dA*dG*d[5mC]*dT*dG*d[5mC]*dA*d[5mC]*e[5mC]*eT) [compound 435764],8
24,435692 (antisense e[5mC]*eG*dG*dT*d[5mC]*d[5mC]*dA*dG*d[5mC]*dA*dG*d[5mC]*eT*eG) [compound 435692],32
25,435830 (antisense eT*eG*dA*dT*dT*dT*dT*dG*d[5mC]*dA*dA*dA*eG*eA) [compound 435830],0
26,435696 (antisense e[5mC]*eA*dG*dA*dA*d[5mC]*dA*dT*dG*dT*dA*d[5mC]*eT*e[5mC]) [compound 435696],10

row,Substance,% inhibition of human Factor 7 mRNA [%]
1,435488 (antisense e[5mC]*eA*dG*dT*d[5mC]*d[5mC]*dT*dG*dG*dG*dT*d[5mC]*eA*eT) [compound 435488],17
2,435485 (antisense eT*e[5mC]*d[5mC]*dT*dG*dG*dG*dT*d[5mC]*dA*dT*d[5mC]*eA*eG) [compound 435485],34
3,435763 (antisense eA*eG*dG*dA*dG*dA*dA*dA*dG*dG*dT*d[5mC]*eA*eG) [compound 435763],2
4,435653 (antisense eA*eT*d[5mC]*dA*dG*d[5mC]*dT*dG*dG*dT*d[5mC]*dA*eT*e[5mC]) [compound 435653],32
5,435820 (antisense e[5mC]*eA*dT*d[5mC]*d[5mC]*dT*dA*dG*dT*d[5mC]*dA*d[5mC]*eT*eG) [compound 435820],19
6,435669 (antisense eG*eG*dA*d[5mC]*d[5mC]*dT*dG*d[5mC]*d[5mC]*dA*dT*dG*eG*eA) [compound 435669],36
7,435816 (antisense eT*e[5mC]*d[5mC]*dA*dA*dA*dG*dG*dA*d[5mC]*dA*dA*eG*eG) [compound 435816],4
8,435828 (antisense eG*eA*d[5mC]*d[5mC]*dT*dG*d[5mC]*d[5mC]*d[5mC]*dA*dT*dT*eT*eT) [compound 435828],0
9,435800 (antisense eG*eG*dA*d[5mC]*d[5mC]*d[5mC]*dA*dA*dA*dG*dT*dG*eG*eG) [compound 435800],0
10,435674 (antisense eA*eA*dA*d[5mC]*dA*dG*dT*dG*dG*dG*d[5mC]*d[5mC]*eG*e[5mC]) [compound 435674],34
11,435771 (antisense eG*eT*d[5mC]*dA*dT*dA*dA*dG*dG*d[5mC]*d[5mC]*dA*eT*eG) [compound 435771],13
12,435824 (antisense e[5mC]*e[5mC]*dT*dA*dA*dA*dG*dA*dT*dG*dA*dA*eT*e[5mC]) [compound 435824],21
13,435697 (antisense eA*eG*dT*dA*dG*d[5mC]*d[5mC]*dG*dG*d[5mC]*dA*d[5mC]*eA*eG) [compound 435697],53
14,435716 (antisense eT*eT*dT*dT*dG*d[5mC]*dA*dG*d[5mC]*d[5mC]*dA*d[5mC]*eT*e[5mC]) [compound 435716],22
15,435823 (antisense eT*eG*dA*dG*dT*d[5mC]*d[5mC]*d[5mC]*dA*dG*dG*d[5mC]*eT*eG) [compound 435823],41
16,435694 (antisense e[5mC]*eT*dG*d[5mC]*dA*dG*dG*d[5mC]*dA*dG*dT*d[5mC]*e[5mC]*eT) [compound 435694],39
17,435490 (antisense e[5mC]*e[5mC]*dT*dG*dG*dT*dG*dT*dA*d[5mC]*dA*d[5mC]*e[5mC]*e[5mC]) [compound 435490],49
18,435486 (antisense eG*eT*d[5mC]*d[5mC]*dT*dG*dG*dG*dT*d[5mC]*dA*dT*e[5mC]*eA) [compound 435486],64
19,435769 (antisense eT*eT*d[5mC]*dT*dT*dT*dG*dA*dA*dA*dA*dA*eT*eA) [compound 435769],0
20,435714 (antisense eA*e[5mC]*dT*d[5mC]*dG*dA*dT*dG*dT*dA*d[5mC]*dT*eG*eG) [compound 435714],3
21,435483 (antisense e[5mC]*eT*dG*dG*dG*dT*d[5mC]*dA*dT*d[5mC]*dA*dG*e[5mC]*e[5mC]) [compound 435483],82
22,435664 (antisense eT*eT*dT*dT*dT*d[5mC]*d[5mC]*dA*d[5mC]*dA*dT*dG*eG*eA) [compound 435664],4
23,435848 (antisense eT*eG*dG*d[5mC]*d[5mC]*dA*d[5mC]*dT*dG*d[5mC]*d[5mC]*dT*e[5mC]*eA) [compound 435848],32
24,435785 (antisense eA*eG*d[5mC]*dT*dT*d[5mC]*dT*d[5mC]*dA*d[5mC]*d[5mC]*dA*e[5mC]*eG) [compound 435785],46
25,435796 (antisense eT*eG*dA*d[5mC]*d[5mC]*dA*d[5mC]*dA*d[5mC]*dA*dT*dT*eT*e[5mC]) [compound 435796],30
26,435689 (antisense eT*eT*d[5mC]*dG*dG*dG*d[5mC]*dA*dG*dG*d[5mC]*dA*eG*eA) [compound 435689],23
